Usually EC50 stands for the midpoint of the concentration-response curve.

Activity calls are given as the source filed them.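 The calls were made as follows: active = EC50 at or below 10 µM; inactive = EC50 above 10 µM.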

The target of this assay is Nuclear hormone receptor DAF-12 (Heterodera glycines). Nature of the assay: H. glycines DAF-12 receptor agonist potency, dose response, cell-based, luminescence, HEK293 (AID 743059).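 Also: agonist potency for compounds that raise hgDAF-12 reporter luminescence.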 To be noted: HEK293 hgDAF-12 reporter, luciferase luminescence.
Consider `c1ccc(CCSc2nccn2-c2ccccc2)cc1`, for which the EC50 was > 67.6 µM (inactive).
Regarding `Cc1ccc2nc(-c3ccccn3)oc2c1`, the EC50 is > 67.6 µM (inactive).
As for `Cc1csc(NC(=O)c2ccc3ccccc3n2)n1`, the figure is > 67.6 µM (inactive).
On to `COc1ccc(/C=C2\SC(=O)N(CCNC(=O)C3CC4C=CC3C4)C2=O)cc1` (stereo not given), for which the EC50 is > 67.5 µM (inactive).
Under `CN1C(=O)/C(=C/C=C2\SCCN2C)N(C)C1=S` stands > 67.6 µM (inactive); under `CCOC(=O)CSc1nc(-c2ccncc2)ccc1C#N`, > 67.5 µM (inactive).
As for `COCCNc1nc(-c2cc3ccccc3o2)cs1`, the EC50 is > 67.5 µM (inactive).
Under `CCOC(=O)c1c(C)oc2c1cc(O)c1ccccc12` stands > 67.5 µM (inactive); under `CCOc1ccc(-c2c(=O)n(O)c3ccccc3[n+]2[O-])cc1`, “inactive”.
As for `O=c1[nH]c(=O)n(C2CC(O)C(CO)O2)cc1Br` (stereo not given), the figure is > 67.6 µM (inactive).
As for `O=c1[nH]c(=O)n(C2CC(O)C(CO)O2)cc1I` (stereo not given), the figure is > 67.6 µM (inactive); as for `CCCn1c(=NC(=O)c2ccco2)c(C(=O)OCC)cc2c(=O)n3ccccc3nc21`, > 67.5 µM (inactive).
As to `Cc1nc2nc(-c3cccs3)[nH]c2cc1Br`, the EC50 was > 67.5 µM (inactive).
Turning to `Cc1c(C(=O)Nc2nccs2)oc2ccccc12`, the EC50 was > 67.6 µM (inactive).
Turning to `Cc1ccc(OCc2ccc(Br)cc2)c([N+](=O)[O-])n1`, the EC50 is > 67.5 µM (inactive).
`Clc1ccc(Nc2nc(-c3cccs3)cs2)nc1`: the EC50 was > 67.5 µM (inactive).
Consider `Cc1ccc(-c2nc(-c3ccncc3)no2)cc1C`, for which the EC50 was > 67.5 µM (inactive).
As to `Cn1c(NC(=O)CCC2CCCCC2)cc(=O)n(C)c1=O`, the EC50 is > 67.5 µM (inactive).
With `Cc1cc(C)n2c(NC3CCCC3)c(-c3cc4ccccc4o3)nc2n1`, the EC50 was > 67.5 µM (inactive).
As for `O=C(Nc1ncccc1O)c1ccc(C(=O)c2ccccc2)cc1`, the figure is 4.55 µM.
Under `O=C(Nc1ccc(Cl)cn1)c1cc2ccccc2o1` stands > 67.5 µM (inactive); under `S=C(c1ccc(-c2ccc(Cl)cc2)o1)N1CCCCC1`, > 67.5 µM (inactive).
As for `CC(=Nc1ccc(Cl)cc1N)c1c(O)cc(C)oc1=O`, the figure is > 67.6 µM (inactive).
On to `Cc1cccc(/C=C\c2nc3ccccc3c(=O)[nH]2)c1`, for which the EC50 was > 67.5 µM (inactive).
As for `COC1=C/C(=C/c2c(N)n3nc(-c4ccc(C)cc4)sc3nc2=O)C=CC1=O`, the figure is > 67.5 µM (inactive); as for `Clc1ccccc1Nc1nc2ccccc2o1`, > 67.6 µM (inactive); as for `c1csc(-c2nnc(-c3ccc(N4CCOCC4)cc3)o2)c1`, > 67.5 µM (inactive).
As for `C=CCN1C=CC(=C/C=C(/C#N)C(=O)OCC)C=C1`, the figure is > 67.5 µM (inactive); as for `Cc1cccc(NC(=O)c2ccc3ccccc3n2)c1C`, > 67.5 µM (inactive).
As for `Cc1nn(-c2nnc(NC3CCCCC3)nn2)c(C)c1Br`, the EC50 was > 67.6 µM (inactive).
As for `Cc1cc2ncc(-c3ccccc3)nc2cc1C`, the figure is > 67.5 µM (inactive); as for `Cc1ccc(/C(N)=N/OC(=O)c2ccco2)cc1`, > 67.5 µM (inactive).
As for `Cc1ccc(-c2nnc(NC3CCCC3)s2)cc1`, the figure is > 67.6 µM (inactive); as for `Cc1cc(C(=O)CSc2ncccn2)c(C)n1Cc1ccco1`, > 67.5 µM (inactive); as for `Cc1cccc(N=Nc2cnc(N)s2)c1`, > 67.6 µM (inactive).
As for `O=C(O)c1cc(-c2cccs2)[nH]n1`, the EC50 was > 67.6 µM (inactive).
As for `COC(=O)c1sc2nc3c(cc2c1N)CCCC3`, the figure is > 67.5 µM (inactive); as for `O=C(NCC1CCCO1)c1cc(-c2ccccc2F)no1` (stereo not given), “inactive”.
Under `CCN(CC)S(=O)(=O)c1cc(C(=O)OCC(=O)Nc2ccc(-c3nc4ccc(C)cc4s3)cc2)ccc1F` stands > 67.5 µM (inactive); under `COc1ccccc1/C=N\N=C(\N)c1ccccn1`, > 67.6 µM (inactive); under `CN(C)CCNc1ncnc2c1ncn2[C@H]1CN(Cc2cccnc2)C[C@@H](CO)O1`, > 67.5 µM (inactive).
On to `Cc1cccc(/C(N)=N/OC(=O)c2ccco2)c1`, for which the EC50 was > 67.6 µM (inactive).
Under `O=c1c2ccccc2cnn1-c1ccc2ccccc2c1` stands > 67.5 µM (inactive); under `COc1ccc2[nH]c(C(=O)Nc3cccc(C)n3)cc2c1`, > 67.5 µM (inactive).
Under `O=C(N/N=C/c1cccs1)c1n[nH]c2c1CCC2` stands > 67.5 µM (inactive); under `CCCCCc1nnc(NC(=O)C2=COCCO2)s1`, > 67.6 µM (inactive).
Under `Oc1cccc(/C=C/c2ccc3cccc(O)c3n2)c1` stands > 67.6 µM (inactive).
As for `c1ccc(Nc2nc(-c3cccnc3)cs2)nc1`, the EC50 is > 67.6 µM (inactive).
On to `Cc1c(C(=O)OC2CCC(C)CC2)[nH]c2c1C(=O)CCC2` (stereo not given), for which the EC50 was > 67.5 µM (inactive).
For `CN(C)c1ccc(N=Nc2nccs2)cc1`, the EC50 was > 67.4 µM (inactive).
On to `N#Cc1c(N)nc(N)nc1Nc1ccc(Br)cc1`, for which the EC50 is > 67.4 µM (inactive).
As for `Cc1cc(C(=O)NC2=NCCS2)cs1`, the figure is > 67.5 µM (inactive); as for `CCOC(=O)c1cnc(SCc2ccccc2)nc1N`, > 67.5 µM (inactive).
Under `CCn1c(O)c(C=Nc2ccccc2)sc1=S` stands > 67.5 µM (inactive); under `O=C(Nc1ccccc1O)c1ccc(NS(=O)(=O)c2cccc3cccnc23)cc1`, 3.3 µM; under `CCSCC(C)(C)n1[nH]c2ccccc2c1=O`, > 67.6 µM (inactive).
As to `FC(F)(F)c1cc(Cl)c2nc(-c3ccccc3)cn2c1`, the EC50 was > 67.5 µM (inactive).
As to `Cn1c(NCc2c[nH]c3ccccc23)nc2ccccc21`, the EC50 is > 67.5 µM (inactive).
As for `CCOC(=O)c1csc(-c2sccc2Br)n1`, the figure is > 67.6 µM (inactive); as for `Fc1ccc(-n2nnc(-c3cccnc3Cl)n2)cc1`, > 67.5 µM (inactive); as for `COc1ccccc1-c1noc(-c2cccs2)n1`, > 67.5 µM (inactive).
As for `O=C(NC1CCC1)c1ccc(C#CC2CC2)cn1`, the figure is > 67.5 µM (inactive); as for `Cc1ccc(SCCN2CCC(C)CCC2=O)cc1` (stereo not given), > 67.5 µM (inactive).
Under `N#Cc1c(Br)n(C2OC(CO)C(O)C2O)c2ncnc(N)c12` (stereo not given) stands > 67.5 µM (inactive); under `C/C(=C\C(=O)c1sccc1Cl)N(C)C`, > 67.6 µM (inactive); under `COc1cccc(-c2noc(-c3cccs3)n2)c1`, > 67.6 µM (inactive).
On to `N=C1/C(=C/c2ccc(OCc3ccccc3F)cc2)C(=O)N=C2SC(CC(=O)N3CCOCC3)=NN12`, for which the EC50 is > 67.5 µM (inactive).
Under `Oc1[nH]c2ccccc2c1N=Nc1ccccc1F` stands > 67.6 µM (inactive).
Under `Cc1cc(O)ccc1Nc1cc(-c2cccc(N(C)C)c2)ncn1` stands > 67.5 µM (inactive).
As for `CCOC(=O)N1CCC(NC(=O)c2cc3ccccn3n2)CC1`, the EC50 was > 67.5 µM (inactive).
